{
  "source": "patent US10551384B2",
  "about": "“MTOR kinase mutations and methods of use thereof” (RUTGERS, THE STATE UNIVERSITY OF NEW JERSEY, priority 2016, dated 2020)",
  "key": {"TOR2-mTOR L2185G mutant": {"test_system": "TOR2-mTOR L2185G mutant", "experiment": "Yeast spotting assay for drug resistance, TOR2-mTOR L2185G", "type": "cell-based, S. cerevisiae", "settings": "37° C., with amphotericin B", "source_text": "FIGS. 4A-C. […] (FIG. 4A) Scheme of a yeast-based screen for drug-resistant mutations in mTOR kinase domain. mTOR kinase domain is amplified by error-prone PCR to generate randomized mutations, which is then recombined in frame into the TOR2-mTOR plasmid by gap-repair in tort-dg cells, and is selected on SC-leucine minus plates. Replica plating is then made onto SC-leucine plates containing DMSO or mTOR kinase inhibitor for selection of drug resistant clones. (FIG. 4B) tor2-dg cells expressing WT or mutant TOR2-mTOR were serially diluted by 10-fold and assayed for sensitivity to different mTOR kinase inhibitors in the presence of amphotericin B. Vector and TOR2 were used as controls. Drug resistant assay was performed at 37° C. in the presence of amphotericin B (except OSI-027). (FIG. 4C) Systematic mutational analysis of L2185 on drug resistance. tort-dg cells expressing WT or mutant TOR2-mTOR carrying all possible mutations at L2185 were serially diluted by 10-fold and tested for sensitivity to different mTOR kinase inhibitors at 37° C.\nTo enhance yeast cell permeability, log phase W303 tort-dg cells were spread evenly on SD-Leu agarose plates. After drying, small sterile filter discs were placed on the surface and 5 μl of indicated mTOR inhibitors or DMSO were applied to each disc with or without adding 5 μl of amphotericin B (10 μM), miconazole (50 μM) or caspofungin (50 μM). Plates were incubated at 37° C. for 3 day. Drug resistance profiles of TOR2-mTOR mutant cells were determined by the spotting assay. For this assay, 10-fold serial dilutions of cells were spotted on SD-leu plates in the presence of indicated mTOR inhibitors with or without amphotericin B (200 nM) and incubated at 37° C. for 3 day."}, "[1]": {"test_system": "Flag-mTOR(L2185A) in HEK293T cells", "experiment": "mTOR signaling immunoblot in HEK293T cells transiently expressing Flag-mTOR(L2185A)", "type": "cell-based, human", "settings": "various concentrations, 1 hr, vs WT Flag-mTOR", "method": "(FIG. 10A) Flag-mTOR(L2185A), when transiently expressed in HEK293T cells, confers drug resistance to mTOR kinase inhibitors. HEK293T cells transiently expressing WT and L2185A mutant Flag-mTOR were treated with various concentrations of INK-128, OSI-027 for 1 hr. The effect on the level of P-S6K, S6K, P-4E-BP1, 4EB-P1, P-AKT and AKT was analyzed by immunoblot. (FIG. 10B) Sequencing verification of genome-engineered SW480 and H460 cells carrying homozygous and heterozygous L2185A mutations in mTOR locus. (FIG. 10C) Independent clones of engineered SW480 cells confer similar drug resistance. Cells were treated with various concentrations of AZD8055 and INK-128 for 2 days. Cell growth was measured by SRB assay. Clones #1, 3 carry heterozygous L2185A mutation. Clones #2, 4 carry homozygous L2185A mutation. Data represent means±SD in three independent experiments. (FIG. 10D) SW480 cells carrying heterozygous and homozygous mTOR(L2185A) mutant alleles have similar drug resistance to mTOR kinase inhibitors. SW480 cells carrying homozygous WT and L2185A mutant mTOR alleles were treated with various concentrations of AZD8055, INK-128, OSI-027, and PP242 for 2 days. Cell growth was measured by SRB assay. […] Cell growth was measured by SRB assay. […] The effect on level of P-S6K, P-4E-BP1 and P-AKT was analyzed by immunoblot. […] The growth of H460 cells was measured by SRB assay. […]"}},
  "data": [
    {"molecule": "CC(C)n1nc(-c2ccc3oc(N)nc3c2)c2c(N)ncnc21", "note": "[INK128]", "values": [
      {"measurement": "drug resistance of TOR2-mTOR L2185G mutant yeast", "setting": "TOR2-mTOR L2185G mutant", "value": "moderately resistant"},
      {"measurement": "drug resistance of mTOR signaling (P-S6K, P-4E-BP1, P-AKT) with Flag-mTOR(L2185A)", "setting": "[1]", "value": "confers resistance"}
    ]}
  ]
}
